Results reported in US20060159829A1, “Consumer product for enhancing mental focus” (Conopco Inc, d/b/a UNILEVER, priority 2004, published 2006).

Assays:
[1] = cited from earlier work
[2] = tested on: spoilage yeasts or moulds; assay: Antimicrobial effect of cinnamic acid at low and neutral pH; format: cell-based; details: 100 ppm

Compound | pKa [1] | effect on growth of spoilage yeasts or moulds ([2]; neutral pH) | effect on growth of spoilage yeasts or moulds ([2]; pH 3.0)
O=S(O)O [sulphite] | 1.88 | – | –
O=C(O)C=Cc1ccccc1 [cinnamic acid] | – | entirely without effect | completely extinguish growth
